# In patent publication US8772243B2, “Methods for predicting the response to anti-cancer treatment with an agonist of TLR7 or an agonist of TLR8” (Inserm (Institut National de la Sante et de la Recherche …, priority 2008, dated 2014):
# What was measured:
# A549 cells [1] = assay: Cell cycle analysis (propidium iodide staining); assay type: cell-based, human; settings: PI staining
# Experimental: FIG. 4 TLR7 and 8 induce survival of lung tumor cells. (A) A549 cells were unstimulated, stimulated with loxoribine (10 μg/ml), Poly U (10 μg/ml), or Gardiquimod(10μg/ml) and incubated with Alamar blue for 10 days. Reduction of Alamar blue was then determined by spectrophotometry at 570 and 600 nm. The percentage of reduced Alamar blue was calculated as described by the manufacturer. A549 cells were unstimulated or stimulated with loxoribine, Poly U, Gardiquimod, etoposide, or cycloheximide for 24 h. (B) The percentage of dead cells was determined by Trypan blue exclusion. (C) The DNA content was measured by IP staining after RNAse A treatment. The percentages indicate the proportion of subdiploid (G0/G1) and […]. Data represent mean values±SD from 3 independent experiments (*p<0.05; ** p<0.01, Student test). (D) A549 cells were cultured for 6 h in the presence of loxoribine, Poly U, or Gardiquimod, and the expression of Bcl-2 was assayed using Taq Man Low Density Array technology. The ΔCT values for Bcl-2 expression were calculated by subtraction of the CT value obtained for the 18S housekeeping gene. The ΔΔCT values were obtained by subtraction of ΔCT values for unstimulated cells from those obtained for stimulated cells. The fold increase (arbitrary unit) was obtained by 2^−ΔΔCT.
# A549 cells were cultured in the presence of loxoribine, Poly U, Gardiquimod, etoposide, or cycloheximide. After 48 h, the cells were harvested, washed in cold PBS, and fixed with 2 ml of 70% cold ethanol in PBS for 2 h at 4° C. After centrifugation, the supernatant was removed and the pellet was rinsed with 0.5% PBS Tween. It was then incubated with […] of RNAse A and 50 μg of propidium iodide in PBS. Propidium iodide staining was determined with a FACScalibur cytometer.
# [2] = test system: Bcl-2 expression in SCC SK-MES cells; assay: Bcl-2 expression, SK-MES; assay type: cell-based, human; settings: data not shown
# Experimental: (§1) Total RNA was extracted from A549 or SK-MES cells stimulated with loxoribine, Poly U, or Gardiquimod for 6 h or from purified human lung cancer cells using the RNeasy isolation-kit RNA (Qiagen, Courtaboeuf, France). The integrity and the quantity of the RNA were evaluated with a bioanalyzer-2100 (Agilent Technologies). All samples were assessed for gene expression analysis using the Taq Man Low-Density Array angiogenesis and immune panel (Applied Biosystem). The RT-PCR experiments were carried-out according to the manufacturer's instructions (Applied-Biosystems). Quantitative real-time TaqMan-PCR was performed using Low-Density-Arrays and the 7900 robotic real-time PCR-system (Applied-Biosystems). The 18S primers and probes were used as internal controls. Data were analyzed using the SDS Software v2.2 (Applied-Biosystems). The ΔCT values were calculated for each gene by subtraction of the CT value of the 18S housekeeping gene from the CT of the gene of interest. The ΔΔCT values were obtained by subtraction of the ΔCT values for unstimulated cells from the […]. The fold increase (arbitrary unit) was obtained by 2^−ΔΔCT.
# [3] = test system: 1549, H1355 and SK-MES cells; assay: Chemoresistance by colony formation assay; assay type: cell-based, human; settings: stimulated with Loxoribine 100 μM and/or polyU 10 μg/ml on days 0, 3, 6, 9
# Experimental: Alternatively, chemoresistance was assessed by the colony formation assay. In this assay, 1549, H1355 and SK-MES cells were seeded in 6-well plates (500 cells per well) and incubated for 15 days at 37° under 5% CO2. The cells were left unstimulated or stimulated 100 μM Loxoribine or with 10 μg/ml single-stranded polyU RNA (InvivoGen) on days 0, 3, 6 and 9. On day 12, different anti-cancer agents were added at the respective LD50 (cisplatin and carboplatin 100 μM, navelbine 50 μM, doxorubicine 2 nM). On day 15, the wells ware washed with PBS, and stained with 6% (vol/vol) glutaraldehyde, 0.5% (wt/vol) crystal violet in water for 30 minutes. The cells were washed and the colonies of more than 50 cells counted. Cell survival was calculated as follows: number of colonies after chemotherapy/number of cells seeded on day 0×plating efficiency, where the plating efficiency is number of colonies/number of cells seeded.
# A549 and SK-MES cells = assay: Transcriptomic analysis of 182 genes (Taq Man Low Density Array); assay type: cell-based, human; settings: 6 h stimulation; versus unstimulated cells
# Experimental: FIG. 6 TLR7 and 8 induce regulation of gene transcription. A549 or SK-MES cells were cultured for 6 h in the presence of loxoribine, Poly U, or Gardiquimod. Total RNA was extracted and analyzed for the expression of 182 genes using Taq Man Low Density Array technology. All genes with a value greater than 35 (CT) were excluded from the analysis. The ΔCT values for the expression of all genes were calculated by subtraction of the CT value of the 18S housekeeping gene. The ΔΔCT values were obtained by subtraction of the ΔCT values for unstimulated cells from those obtained for TLR7- or 8-stimulated cells. The fold increase (arbitrary unit) was obtained by 2^−ΔΔCT. Values were then clustered using the Genesis Software.
# as §1
# A549 cells [4] = assay: A549 xenograft in NOD/SCID mice; assay type: in vivo
# Experimental: Mice were anesthetized by intra-peritoneal injection of a solution containing 3.2 mg of ketamine (Virbac) and 0.16 mg of xylasine (Rompum 2%, Bayer Healthcare) in 80 μl of PBS (Gibco). Five days prior to experimentation, A549 cells were pre-stimulated with 100 μM Loxoribine (Invivogen) or left unstimulated. For each condition 5×10^6 cells were diluted in 250 μl PBS and injected subcutaneously to 5 mice per group and were re-stimulated either with 50 μl PBS or with 100 nmol of Loxoribine diluted in 50 μl PBS. Stimulating injections into the tumor site were carried out on the day the cells were injected and then on days 3, 6 and 9. The mice then received either 120 μA PBS, or a chemotherapy of cisplatine (2 mg/kg/injection diluted in 120 μl PBS) on days 18, 20 and 22, both intra-peritoneal. The volume of the tumor was determined by measuring the length (Lg), the width (Wi) of the tumor and by calculating (Lg*(Wi*Wi)/2.
Molecule,proportion of cells in G0/G1 or G2/M phases versus unstimulated cells (A549 cells [1]),increase in Bcl-2 expression [2] [fold],resistance of colonies to combined anti-cancer agents [3],genes down-regulated in both SK-MES and A549 cells (A549 and SK-MES cells),"genes up-regulated in A549 cells, but down-regulated in SK-MES cells (A549 and SK-MES cells)","genes up-regulated in SK-MES, but down-regulated in A549 cells (A549 and SK-MES cells)",genes up-regulated in both SK-MES and A549 cells (A549 and SK-MES cells),"tumor volume by week 14 (A549 cells [4]; A549 cells pre-stimulated 100 μM, 100 nmol into tumor site days 0, 3, 6, 9, control group 4 cm^3) [cm^3]",metastases at autopsy (A549 cells [4]; Loxoribine mice versus control mice),"time of 50% mortality (A549 cells [4]; Loxoribine mice, NS mice towards week 17) [week]","tumor volume seven weeks after injection of tumor cells (A549 cells [4]; PBS-treated Loxoribine pre-stimulated group, PBS-treated NS group 1.9 cm^3) [cm^3]","tumor volume ratio, Loxoribine pre-stimulated versus NS group (A549 cells [4]; PBS-treated, seven weeks after injection) [times]"
Poly U,did not observe any significant differences,100,more resistant to treatment with combined anti-cancer agents,"Prolactin (PRL), CD80, Fibronectin-1 (FN-1), A Disintegrin And Metalloproteinase with ThromboSpondin motif 1 (ADAMTS1), and Serpin Peptidase Inhibitor Clade C1 (SERPINC1)","Angiopoietin like 3 (ANGPTL3), Serpin Peptidase Inhibitor Clade F1 (SERPINF1), and Angiopoietin 1 (ANGPT1)","ANGPTL1, Platelet Factor 4 (PF4), and fms related tyrosine kinase 4 (FLT4)","Bcl-2, CCR4, and Vasohibin-1 (VASH-1)",–,–,–,–,–
"C=CCn1c(=O)n([C@@H]2O[C@H](CO)[C@@H](O)[C@H]2O)c2nc(N)[nH]c(=O)c21 [loxoribine, 7-allyl-7,8-dihydro-8-oxo-guanosine]",did not observe any significant differences,100,more resistant to treatment with combined anti-cancer agents,"Prolactin (PRL), CD80, Fibronectin-1 (FN-1), A Disintegrin And Metalloproteinase with ThromboSpondin motif 1 (ADAMTS1), and Serpin Peptidase Inhibitor Clade C1 (SERPINC1)","Angiopoietin like 3 (ANGPTL3), Serpin Peptidase Inhibitor Clade F1 (SERPINF1), and Angiopoietin 1 (ANGPT1)","ANGPTL1, Platelet Factor 4 (PF4), and fms related tyrosine kinase 4 (FLT4)","Bcl-2, CCR4, and Vasohibin-1 (VASH-1)",8,more ganglionic and pulmonary metastases than control mice,~15,5.3,2.5
